Experimental data from patent US20180133212A1, “COMBINATION OF A BCL-2 INHIBITOR AND A BROMODOMAIN INHIBITOR FOR TREATING CANCER” (Gilead Sciences, Inc., priority 2016, published 2018).
Where “and” joins values, the source holds several entries; their conditions need not be identical. Equal values may be shown once. Read-outs that look alike come from different tables or passages of the source. Each block holds one molecule with its values, some of them ahead of it.

Key:
[1] = test system: DLBCL and FL cell lines; experiment: Annexin V apoptosis assay (flow cytometry); type: cell-based, human
Method: Apoptosis induced by Compound A was measured by Annexin V staining as detected by flow cytometry. Compound A was diluted two-fold in duplicate to a starting concentration of 5 mM in 100% DMSO, and then serially diluted by three-fold in 100% DMSO in a 96 well plate format to achieve a 500× dose range of 5 mM to 0.76 μM. Serially-diluted Compound A was then further diluted 1:5 in sterile water to generate a 100× stock and finally diluted 1:100 into assay plate wells containing 200 μL of cells. The final concentration of DMSO was 0.2% in 200 μL in the assay wells and the dose range of Compound A was 10 μM to 1.5 nM. Cells were plated at 20,000-80,000 cells per well and assay plates were incubated after compound addition at 37° C. with 5% CO2 for 3 days in growth medium appropriate for each cell line. Control wells on all assay plates included 0.2% DMSO (0% apoptosis on day 3), 1 μM Velcade®, and 1 μM staurosporine (apoptosis control on day 3). Velcade® and staurosporine were used as benchmarks to ensure apoptosis could be achieved in each cell line.
After 72 to 96 hours, the cell compound mixture was transferred to a 96-well deep well conical bottom plate, centrifuged at 300×g, and cell pellets were re-suspended in DPBS. Plates were centrifuged at 300×g, supernatant was decanted, and cell pellets were re-suspended in 500 μl of pre-diluted LIVE/DEAD® Fixable Aqua Dead Cell Stain for 30 minutes at room temperature protected from light. Assay plates were centrifuged at 300×g, supernatant was decanted, and cell pellets were washed twice in 500 μL of DPBS containing 4% FBS. The washed pellets were re-suspended in 100 μL DPBS containing 4% FBS, 5 μL of Annexin V APC was added to each well, and assay plates were incubated for 30 minutes at room temperature, protected from light. Assay plates were washed twice with 500 μL of DPBS containing 4% FBS per well, and cell pellets were finally re-suspended in 250 μL of DPBS containing 4% FBS.
Flow cytometric sampling of 20,000 total events within a forward scatter and side-scatter gate (P1) per well were collected on a BD FACS Canto II instrument with DIVA software (San Jose, Calif.) using a high throughput screen auto-sampler for analysis of apoptosis. Within the P1 gate Annexin V^+/LIVE/DEAD^− and Annexin V^+/LIVE/DEAD^+ cells were digitally monitored. Single- or double-labeled cells were gated, percentages of Annexin V-positive cells in each population were recorded and combined, and data were extracted to a flow cytometry standard file (fcs). Mean percentages of Annexin V-positive cells were determined for the positive control (Velcade® and staurosporine at 1 μM) and negative wells (0.2% DMSO) to ensure the assay performed as expected for each cell line on each experimental day.
EC50 values for each compound were calculated based on log concentration of drug and percent Annexin V-positive cells using a four-parameter logistical fit equation in Prism 6.01 of the GraphPad software package. The percentage of apoptosis at EC50 was interpolated from the curve fit for each cell line. […] For an experiment to be valid, the % baseline apoptosis for a given cell line was required to be <35%.
(§1) The activity of Compound A to induce apoptosis or inhibit cell growth was assessed across a panel of DLBCL cell lines. DLBCL cell lines were subjected to a ten point dose response of Compound A (range 0.5 nM-10,000 nM, 3× dilution series) and assessed for cell growth inhibition by CTG or apoptosis by AnnexinV staining after three or four days.

[2] = Clinically relevant exposures (clinical plasma exposure, protein adjusted); type: in vivo
Method: (§2) Clinically relevant doses of Compound A were calculated.
A set of data was selected from the synergy screening to represent clinically relevant concentration ranges of venetoclax and Compound A. […] Cmin and Ctrough of Compound A were similarly adjusted.

[3] = Protein shift: free fraction in human plasma / cell culture media; type: in vitro ADME
Method: as §2
A set of data was selected from the synergy screening to represent clinically relevant concentration ranges of venetoclax and Compound A. The average concentration of venetoclax (Cav) was estimated at the 400 mg dose adjusted for protein binding using empirically determined free fraction in human plasma/cell culture media. Cmin and Ctrough of Compound A were similarly adjusted.

[4] = test system: DLBCL cell lines; experiment: Single agent cell growth assessment (Cell Titer Glo); type: cell-based; settings: Homo sapiens, 96 h, CTG, three or four days
Method: Compound A was serially diluted by three-fold in 100% DMSO in a 96 well plate format in duplicate dose curves to achieve a dose range of 10 mM to […] as a 1000× stock. Serially-diluted 1000× Compound A was then further diluted 1:100 in RPMI-1640 without additives to generate a 10× stock and finally diluted 1:10 into assay plate wells containing 100 μL of cells. The final concentration of DMSO was 0.1% in 111 μL of final volume in the assay wells and the dose range of Compound A was 10 μM to 0.5 nM. […] Cell viability was assessed using Cell Titer Glo (CTG, Promega, Madison, Wis.) following the manufacturer's protocol. Luminescence was measured on an EnSpire Multimode Plate Reader (Perkin Elmer, Waltham, Mass., Model 2300-001M).
A replicate assay plate was created at study initiation, processed immediately for cell viability by CTG, and these values represented 0% growth (day 0). […] Curve fittings were applied with a four parameter variable slope model and the following three calculations were determined using the curve fits. […]
as §1

[5] = test system: Myc protein; experiment: Reduction of Myc protein expression by Compound A; type: cell-based, human; settings: subset of cell lines of FIG. 1, dose-dependent
[6] = ABT-199, 400 mg dose, Phase I NHL study; cited from earlier work

EC50 ([1]; Homo sapiens, one responding cell line with EC50 above 113 nM): 2.5 µM
EC50 ([1]; individual responding cell lines, three or four days): < 0.113 µM and 0.274 µM and 0.881 µM
CCM adjusted Cave ([2]; human, in vivo): 40 nM
CCM adjusted Cmin ([2]; human, in vivo): 10 nM
Cmax ([2]; human, in vivo, 4 mg, CCM protein adjusted CCM Cmax): 111 nM
Cmax ([2]; human, in vivo, 4 mg, exposures Cmax): 279 ng/mL and 638 nM
Cmax ([2]; human, in vivo, CCM adjusted Cmax): 90 nM
Cmax ([2]; human, in vivo, protein adjusted Cmax concentration): ~113 nM
CCM/buffer [3]: CCM/buffer 67%
HP/buffer ([3]; human): HP/buffer 11.7
EC50 ([5]; Homo sapiens): ≤ 0.155 µM
EC50 [5]: 0.284 µM
SMILES: Cc1noc(C)c1-c1cc(C(O)(c2ccccn2)c2ccccn2)c2nc(C3CC3)[nH]c2c1 [Compound A]
% apoptosis by 1 μM ([1]; cell lines that did not undergo apoptosis (10 of 21; 8 of the FIG. 1 subset)): < 30%
% Annexin V positive after treatment with 1 μM ([1]; eight cell lines with EC50 <113 nM): > 30%
lines refractory to Bcl-2 inhibition that undergo apoptosis ([1]; of the 8 lines refractory to venetoclax (FIG. 4)): 6
number of cell lines that underwent apoptosis ([1]; of twenty-one DLBCL and FL cell lines, single agent): 11
subset of DLBCL cell lines in which apoptosis was induced ([1]; share of DLBCL cell lines): 58%
EC50 ([4]; DLBCL cell lines of FIG. 1, read-out: growth inhibition EC50 range across cell lines): 0.012 to 0.072 µM
EC50 ([4]; mean over subset of cell lines of FIG. 1, read-out: growth inhibition mean EC50): 0.04 µM

Cmax ([2]; ABT-199, 400 mg dose, cell culture media adjusted, read-out: CCM protein adjusted Cmax): 536 nM
Cmax ([2]; human, plasma, 400 mg, ABT-199, 400 mg dose, cell culture media adjusted, read-out: CCM protein adjusted Cmax): 536 nM
Cmax ([2]; human, plasma, 400 mg, ABT-199, 400 mg dose, read-out: exposures Cmax): 2300 nM
CCM/buffer ([3]; free fraction, cell culture media): CCM/buffer 0.44%
HP/buffer ([3]; free fraction, human plasma): HP/buffer 0.10%
SMILES: CC1(C)CCC(CN2CCN(c3ccc(C(=O)NS(=O)(=O)c4ccc(NCC5CCOCC5)c([N+](=O)[O-])c4)c(Oc4cnc5[nH]ccc5c4)c3)CC2)=C(c2ccc(Cl)cc2)C1 [venetoclax, reference compound]
exposures Cmax [6]: 2000 ng/mL
exposures Cmin [6]: 200 ng/mL
